Earlier results as cited in patent publication US20030013675A1 (Boehringer Ingelheim Pharma KG, priority 2001, published 2003).

How the values were obtained:
adherent human monocyte = details: in particular human peripheral blood monocyte
antigen-challenged pig = details: in vivo
[1] = inhaled at several times the recommended dose

CCNC(=O)[C@H]1OC(n2cnc3c(N)nc(NCCc4ccc(CCC(=O)O)cc4)nc32)[C@H](O)[C@@H]1O (stereo partly shown) [CGS 21680]
endotoxin-stimulated adherent human monocyte TNFα production (adherent human monocyte): decreases
neutrophil superoxidase release (Human Neutrophils): inhibits

CCCn1c(=O)c2c(C)nc(CC)n2c2nc(OC)ccc21 [Example D-22888]
antiallergic effect (antigen-challenged pig): strong antiallergic affect
rhinorrhea in the antigen-challenged pig (antigen-challenged pig): inhibit rhinorrhea

CCNC(=O)[C@@H]1O[C@H](n2cnc3c(N)ncnc32)[C@@H](O)[C@H]1O [NECA]
zymosan-stimulated oxidative activity in guinea pig eosinophils (guinea pig eosinophils): inhibits

CC[N+]1(C)[C@@H]2CC(OC(=O)[C@H](CO)c3ccccc3)C[C@H]1[C@@H]1O[C@@H]12 (stereo partly shown) [oxitropium]
change in heart rate, blood pressure, bladder function, intraocular pressure, or pupillary diameter [1]: little or no change

C[N+]1(C)[C@@H]2C[C@@H](OC(=O)C(O)(c3cccs3)c3cccs3)C[C@H]1[C@@H]1O[C@@H]12 [tiotropium, (1α, 2β, 4β, 5α, 7β)-7-[(hydroxydi-2-thienylacetyl)oxy]-9,9-dimethyl-3-oxa-9-azoniatricyclo[3.3.1.0^2,4]nonane bromide]
change in heart rate, blood pressure, bladder function, intraocular pressure, or pupillary diameter [1]: little or no change
